The values that follow come from patent US20220267271A1, “WNT ACTIVATORS AND METHODS OF USE” (MAYO FOUNDATION FOR MEDICAL EDUCATION AND RESEARCH, priority 2019, published 2022).

Broadly, the EC50 is the concentration needed to bring the measured effect to its halfway point. A word on the solubility: it is the dissolved amount per volume that the medium holds.

Molecules are shown by their SMILES. Converted amounts (≈) assume the structure as drawn. Where two headings read alike, the source gives them in different places.

For data set [1], the system named is Wnt/β-catenin signaling. Kind of data set: Luciferase reporter assay (Super8XTOPFlash) for Wnt/β-catenin signaling in HEK293 cells. To be noted: 24 h; for Wnt reporter activity / activation of Wnt/β-catenin signaling: HEK293 cells; for EC50: Homo sapiens, Wnt3A plasmid-transfected HEK293 cells, 30-30,000 nM, mean and SD of 3-7 independent experiments. It counts as cell-based. How it is done: (§1) (A) structures of niciosamide and CI-994; (B) HEK293 cells were transfected with Super8XTOPFlash and β galactosidase vectors along with Wnt3A or control vector. After 24 hours incubation, cells were treated with CI-994 at the indicated concentration for 24 hr. The luciferase activity was then measured and normalized to the activity of the β-galactosidase. (C) HT1080 cells stably transduced LRP6 with HA tag were treated with niciosamide and CI-994 at the indicated concentrations for 24 h. The levels of HA-LRP6 were examined by Western blot with anti-HA antibody. (D) Western blots showing the depletion of LRP6 after 2 days of transiently transfection of 50 nM LRP6 siRNA in HEK293 cells. ON-TARGETplus double-stranded siRNA oligomers against human LRP6 and non-specific scrambled siRNA control (Stealth RNAi™ siRNA Negative Control, Med GC) were purchased from Thermo Scientific. siRNA LRP6-1, siRNA LRP6-2 and control siRNA were Thermo Scientific catalog numbers J-003845-09, J-003845-11 and 12935300, respectively. (E) HEK293 cells were transfected with LRP6 siRNAs, and after 8 h incubation were further transfected with Super8XTOPFlash construct and β galactosidase-expressing vector. After 24 h incubation, the cells were treated with CI-994 (16 μM) for 24 h. The luciferase activity was then measured and normalized to β-galactosidase activity. All the values are the average of triplicate determinations with the SD values indicated by error bars. **P<0.01 versus corresponding control value.
HEK293 cells were transfected with SuperXTOPFlash and β-galactosidase vectors along with Wnt3A or control vector. After 24 h incubation, cells were treated with 1015 or 1039 at the indicated concentrations for 24 h. The luciferase activity was then measured and normalized to the activity of the β-galactosidase. All the values are the average of triplicate determinations with the SD values indicated by error bars. This experiment is representative of at least three such experiments performed with similar data.
Luciferase reporter assay for Wnt/β-catenin signaling: HEK293 cells were plated into 24-well plates. After overnight culture, the cells were transiently transfected with the Super8XTOPFlash luciferase construct and β-galactosidase-expressing vector along with or without Wnt3A plasmid. After 24 h incubation, cells were treated with each individual compound at the indicated concentrations for 24 h. Cells were then lysed and both luciferase and β-galactosidase activities were determined. The luciferase activity was normalized to the β-galactosidase activity.
HEK293 cells were plated into 24-well plates. After overnight culture, the cells were transiently transfected with the Super8XTOPFlash luciferase construct and β-galactosidase-expressing vector along with the Wnt3A plasmid. After 24 h incubation, the cells were treated with each individual compound at 30-30,000 nM in triplication for 24 h. The cells were then lysed, and luciferase and β-galactosidase activities were determined with the luciferase assay system (Promega, Cat. #E1501) and β-galactosidase assay system (Promega, Cat. #E2000), respectively. The luciferase activity was normalized to the s-galactosidase activity, and the EC50 values were calculated by use of GraphPad software, and shown in the below table. All the EC50 values (mean and SD) are from 3-7 independent experiments.

Data set [2] can be described thus: Aqueous (kinetic) solubility assay in PBS pH 7.4. To be noted: phosphate-buffered saline, 25 °C, pH 7.4, aqueous buffer, kinetic from dmso stock, PBS pH 7.4, 2% DMSO, two hours, assay range 2-200 μM. It counts as physicochemical. On the procedure:
Aqueous solubility assay: Using a 10 mM stock solution of the compound in 100% DMSO, dilutions were prepared to a theoretical concentration of 200 μM in duplicates in phosphate-buffered saline pH 7.4 with 2% final DMSO. In parallel, compound dilutions in 50% acetonitrile/PBS were prepared to theoretical concentrations of 0 μM (blank), 50 μM, 100 μM and 200 μM with 2% final DMSO to generate calibration curves. The experimental compound dilutions in PBS were further allowed to equilibrate at 25° C. on a thermostatic orbital shaker for two hours and then centrifuged at 14000 rpm, 5 min and filtered through HTS filter plates using a vacuum manifold. The supernatants of test compounds were diluted 2-fold with acetonitrile contained 4% DMSO before measuring. Ondansetron was used as reference compound to control proper assay performance. 200 μl of samples were transferred to 96-well plate and measured in 200-550 nm range with 5 nm step. The effective range of this assay is approximately 2-200 μM and the compounds returning values close to the upper limit of the range may have higher actual solubility (e.g. 5 ? deoxy-5-fluorouddine).

The subject of the next data set is C2C12 cells. The experiment in a line: Alkaline phosphatase (ALP) activity assay, osteoblastic differentiation of C2C12 cells. It counts as cell-based. The settings on record: dose-response 0.1-12.8 μM, 72 h. How it is done:
C2C12 cells were seeded into 24-well plates (1×10^5 cells/well). After culture overnight, the cells were treated with a Wnt activator at 0.8 μM (A) and 1.6 μM (B) for 72 h. The ALP activity was measured by ALP assay kit from AnaSpec (AS-72146). All the values are the average of triple determinations with the s.d. indicated by error bars. *P<0.05, **P<0.01 versus corresponding control value. This experiment is a representation of two such experiments performed with similar data.
C2C12 cells were seeded into 24-well plates (1×10^5 cells/well). After culture overnight, the cells were treated with the noted compounds at 0, 0.1, 0.2, 0.4, 0.8, 1.6, 3.2, 6.4 and 12.8 μM for 72 hours. The ALP activity was measured by ALP assay kit from AnaSpec (AS-72146). All the values are the average of triple determinations with the s.d. indicated by error bars.
Alkaline phosphatase (ALP) activity assay: C2C12 cells in 24-well plates were treated with each individual compound at the indicated concentrations for 72 h. Cells were then harvested for assay of ALP activity with the ALP assay kit (AnaSpec) according to the manufacturers specifications.

Data set [3] is described as follows: Metabolic stability in mouse liver microsomes. It counts as in vitro ADME. The settings on record: 2 μM, five time points over 40 min, NADPH. On the procedure:
Metabolic stability of several compounds (1009, 1011, 1015, 1020, and 1056) and 2 reference compounds (propranolol and imipramine) were determined in mouse liver microsomes at five time points over 40 min using HPLC-MS. Metabolic stability is defined as the percentage of parent compound lost over time in the presence of a metabolically active test system.
Metabolic stability in mouse liver microsomes: Mouse hepatic microsomes were isolated from pooled, perfused livers of Balb/c male mice according to the standard protocol. The batch of microsomes was tested for quality control using Imipramine, Propranolol and Verapamil as reference compounds. Microsomal incubations were carried out in 96-well plates in 5 aliquots of 40 μL each (one for each time point). Liver microsomal incubation medium contained PBS (100 mM, pH 7.4), MgCl2 (3.3 mM), NADPH (3 mM), glucose-6-phosphate (5.3 mM), glucose-6-phosphate dehydrogenase (0.67 units/ml) with 0.42 mg of liver microsomal protein per ml. Control incubations were performed replacing the NADPH-cofactor system with PBS. Test compound (2 μM, final solvent concentration 1.6%) was incubated with microsomes at 37° C., shaking at 100 rpm. Incubations were performed in duplicates. Five time points over 40 minutes had been analyzed. The reactions were stopped by adding 12 volumes of 90% acetonitrile-water to incubation aliquots, followed by protein sedimentation by centrifuging at 5500 rpm for 3 minutes. […]. Supernatants were analyzed using the HPLC system coupled with tandem mass spectrometer.
The elimination constant (kel), half-life (t1/2) and intrinsic clearance (Clint) were determined in plot of […] versus time, using linear regression analysis: […]
(Liver microsomes are vesicles of endoplasmic reticulum, rich in cytochrome P450 enzymes.)

The test system of data set [4] is Wnt/β-catenin signaling. The settings on record: cancer cells; cited from earlier work.
The subject of another data set is LRP6. Kind of data set: Wnt reporter assay in HEK293 cells after LRP6 siRNA knockdown. To be noted: CI-994 16 μM, 1011, 1015, 1023 1 μM, 24 h. It counts as cell-based, human. On the procedure: as §1
(A) HT1080 cells stably transduced with human LRP6 with HA tag were treated with niciosamide (1 μM) and other compounds as noted (1 μM) for 24 hr. The levels of HA-LRP6 were examined by Western blots with anti-HA antibody. All samples were also probed with anti-actin antibody to verify equal loading. This experiment is a representative of two such experiments performed with similar data. (B) N2a cells were treated with 1015 and 1011 at the indicated concentrations for 24 h. The expression levels of LRP6, β-catenin and actin were examined by Western blotting. This experiment is a representative of three such experiments performed with similar data. (C) HEK293 cells were transfected with LRP6 siRNAs, and after 8 h incubation were further transfected with Super8XTOPFlash construct and β galactosidase-expressing vector. ON-TARGETplus double-stranded siRNA oligomers against human LRP6 and non-specific scrambled siRNA control (Stealth RNAi™ siRNA Negative Control, Med GC) were purchased from Thermo Scientific. siRNA LRP6-1, siRNA LRP6-2 and control siRNA were Thermo Scientific catalog numbers J-003845-09, J-003845-11 and 12935300, respectively. […] The luciferase activity was then measured and normalized to β-galactosidase activity. […]

Where [5] appears, read: read-out: PBS solubility, pH 7.4, μM Exp1.
[6] abbreviates: read-out: PBS solubility, pH 7.4, μM Exp2.
Setting [7] is: read-out: PBS solubility, pH 7.4, μM Mean.

On to `O=C(CCCCCN1C(=O)c2cccc3cccc(c23)C1=O)NO` [Scriptaid, reference compound], for which the “Wnt reporter activity / activation of Wnt/β-catenin signaling” value (“Wnt reporter activity / activation” for short) in the data set on Wnt/β-catenin signaling [1] is listed as “unable to activate”.
Compound `Nc1ccccc1NC(=O)c1ccc(C(=O)NCC2CCN2C2CCCCCC2)cn1` (stereo not shown) [Compound 1050] gave an EC50 in the data set with Wnt/β-catenin signaling [1] of 408 ± 77 nM.
Take `Cn1cc(CNCC2CCN(c3ncc(C(=O)NO)cn3)CC2)c2ccccc21` [JNJ-26481585, reference compound]: the “Wnt reporter activity / activation” value in the data set on Wnt/β-catenin signaling [1] is given as “unable to activate”.
As for `CCN1CCCC1CNC(=O)c1ccc(C(=O)Nc2ccccc2N)nc1` (stereo not shown) [Compound 1028], the EC50 in the data set on Wnt/β-catenin signaling [1] amounted to 519 ± 24 nM.
`Cc1cc(Cl)ccc1OCCCC(=O)NO` [Droxinostat, reference compound]: the “Wnt reporter activity / activation” value with Wnt/β-catenin signaling [1] is given as “unable to activate”.
On to `COc1ccc(CN2CCC2CNC(=O)c2ccc(C(=O)Nc3ccccc3N)nc2)cc1` (stereo not shown) [Compound 1041], for which the EC50 in the data set on Wnt/β-catenin signaling [1] turned out to be 596 ± 79 nM.
Take `Cc1nccn1CC1CCc2c(c3ccccc3n2C)C1=O` (stereo not shown) [Ondansetron, reference compound]: the solubility at 2 h was 109 µM (≈ 32 µg/mL) in data set [2] (setting [5]), 113 µM (≈ 33.2 µg/mL) in data set [2] (setting [6]) and 111 µM (≈ 32.6 µg/mL) in data set [2] (setting [7]).
Regarding `Nc1ccccc1NC(=O)c1ccc(C(=O)NCCN2CCCC3CCCCC32)cn1` (stereo not shown) [Compound 1009], the EC50 in the data set with Wnt/β-catenin signaling [1] turned out to be 601 ± 101 nM. In the data set on C2C12 cells, the “potency in inducing C2C12 osteoblastic differentiation compared with CI-994” value is “more potent than CI-994”. Further, the solubility at 2 h in data set [2] (setting [5]) came to 197 µM (≈ 83 µg/mL); in data set [2] (setting [6]), 191 µM (≈ 80.5 µg/mL); in data set [2] (setting [7]) it was 194 µM (≈ 81.8 µg/mL). For the same compound, the “stability in mouse hepatic microsomal system” value in data set [3] is “moderate stability”.
With `Nc1ccccc1NC(=O)c1ccc(C(=O)NCC2CCCN2CC2CCCCC2)cn1` (stereo not shown) [Compound 1038], in the data set with Wnt/β-catenin signaling [1], the midpoint of the response, the EC50, lay at 526 ± 268 nM.
As to `O=C(Nc1ccc([N+](=O)[O-])cc1Cl)c1cc(Cl)ccc1O` [Niclosamide, 5-chloro-N-[2-chloro-4-nitrophenyl]-2-hydroxy benzamide], the “Wnt/β-catenin signaling (by inducing LRP6 degradation)” value in the data set on Wnt/β-catenin signaling [4] is given as “suppresses”.
Regarding `Nc1ccccc1NC(=O)c1ccc(C(=O)NCC2CCN2C2CCCC2)cc1` (stereo not shown) [Compound 1021], the EC50 with Wnt/β-catenin signaling [1] was determined as 1380 ± 643 nM.
The same measure, in the same setting: then `Nc1ccccc1NC(=O)c1ccc(C(=O)NCC2CCN2C2CCCCC2)cn1` (stereo not shown) [Compound 1045], with 507 ± 128 nM.
As for `Nc1ccccc1NC(=O)c1ccc(C(=O)NCC2CCCN2CCc2ccccc2)cn1` (stereo not shown) [Compound 1039], in the data set with Wnt/β-catenin signaling [1], the “Wnt reporter activity / activation” value is reported as “activate” and a half-maximal response (EC50) required 298 ± 25 nM.
Regarding `Nc1ccccc1NC(=O)c1ccc(C(=O)NCC2CCCN2C2CCCCC2)cn1` (stereo not shown) [Compound 1046], a half-maximal effect with Wnt/β-catenin signaling [1] (EC50) was put at 532 ± 38 nM.
As to `CC(=O)Nc1ccc(C(=O)Nc2ccccc2N)nc1` [Compound 1056], the “stability in mouse hepatic microsomal system” value in data set [3] was “good stability”.
Take `Nc1ccccc1NC(=O)c1ccc(C(=O)NCCN2CCC3(CCCCC3)CC2)cn1` [Compound 1013]: in the data set with Wnt/β-catenin signaling [1], it took 444 ± 36 nM to reach a half-maximal effect (EC50).
In turn, `CC1CCCC(C)N1CCC(=O)Nc1ccc(C(=O)Nc2ccccc2N)nc1` (stereo not shown) [Compound 1023] yielded an EC50 with Wnt/β-catenin signaling [1] of 496 ± 195 nM. In addition, the “effect of knockdown of LRP6 expression on the compound's effect on Wnt/β-catenin signaling” value with LRP6 is “significantly attenuated”.
`COCCN1CCCC1CNC(=O)c1ccc(C(=O)Nc2ccccc2N)nc1` (stereo not shown) [Compound 1030] had an EC50 in the data set with Wnt/β-catenin signaling [1] of 483 ± 40 nM.
Still for that read-out and setting: then `Nc1ccccc1NC(=O)c1ccc(NC(=O)CCN2CCC[C@@H]3CCCC[C@@H]32)cn1` (racemic) [Compound 1059], with 494 ± 147 nM.
